Reference: patent publication US20260284079A1, “LIPID PRODRUGS OF ALLOPR[…] USES THEREOF” (Seaport Therapeutics, Inc., priority 2023, published 2026)

What was measured:
Format in all cases: in vivo, human
[1] = Sleep Quality Scale (SQS); conditions: all cohorts
Procedure: The scale was administered in the morning, and subjects are asked to rate their sleep quality of the past 7 days, ranging from terrible (score of 0), poor (scores of 1-3), fair (scores of 4-6), good (scores of 7-9), and excellent (score of 10).

[2] = Body sway (posturography); conditions: MAD
Procedure: Body Sway is assessed as a measure of a subject's slight postural movements in order to retain balance either statically in a neutral position or dynamically while in motion. Body Sway is typically measured by total displacement of the center of body mass relative to the base of support over time. Posturography is an objective, sensitive, reliable, and non-invasive method designed to assess the effects of drugs and alcohol on body sway and vigilance. Body sway is recorded using a computerized force-platform. Using specific positioners, bare feet subjects are asked to stand still and motionless, looking at a cue placed in front of them. Measurement of body sway (one minute with eyes open and one minute with eyes closed) is recorded as recommended by the International Society of Postuography. The length and area of the postural oscillations are then calculated.

[3] = Safety and tolerability, treatment-emergent adverse events (Example 1); conditions: for Any TEAE, subjects (%): 9 subjects
From the text: As used herein, the term “Adverse Event” refers to any event, side-effect, or other untoward medical occurrence in a subject (i.e., a clinical study participant) administered a pharmaceutical product. […] As used herein, a “treatment-emergent adverse event” or “TEAE” refers to an adverse event not present prior to treatment (i.e., receiving a dose of Compound 1) or an already present event that worsens in intensity or frequency following treatment. TEAEs may be classified by system organ class (SOC); an exemplary SOC is Nervous System Disorders. Examples of Nervous System Disorder TEAEs include somnolence, headache, dizziness, lethargy, balance disorder, and cognitive disorder.
A three-part study to assess the safety, tolerability, and PK/PD properties of Compound 1 in humans was performed. Part 1 was a randomized, double-blinded, placebo-controlled, single ascending dose (SAD) phase. Part 2 was a randomized, open-label phase to assess the effect of food on Compound 1. Part 3 was a randomized, double-blinded, placebo-controlled multiple-ascending dose phase.
Part 1 Primary Objectives: to evaluate the safety and tolerability of single oral doses of Compound 1 and to determine the maximum tolerated dose (MTD) following ascending single oral doses of Compound 1. Part 1 Primary Endpoints: incidence, severity, and duration of treatment-emergent adverse events (TEAEs), serious adverse events (SAEs), and incidence of clinically significant vital signs, pulse oximetry, ECGs, safety laboratory, or physical examination findings and MTD of Compound 1 in healthy subjects.
The safety, tolerability, and PK of Compound 1 administered as multiple doses (up to 7 days) was determined. Subjects in cohorts 4-6 were administered Compound 1 once daily in the morning (QAM) in a fed state. Subjects in cohorts 7-8 were administered Compound 1 once daily in the evening (QHS) in a fed state.
Part 3 Primary Objective: to evaluate the safety and tolerability of multiple oral doses of Compound 1 and to determine the maximum tolerated dose of Compound 1 following multiple oral doses. Part 3 Primary Endpoints: incidence, severity, and duration of treatment-emergent adverse events, […], and incidence of clinically significant vital signs, pulse oximetry, ECGs, safety laboratory, or physical examination findings, and the maximum tolerated dose of Compound 1 in healthy subjects.

CCCCCCCC(=O)OCC(COC(=O)CCCCCCC)OC(=O)CC(C)CC(=O)OCOC(=O)O[C@@H]1CC[C@@]2(C)[C@@H](CC[C@@H]3[C@@H]2CC[C@]2(C)[C@@H](C(C)=O)CC[C@@H]32)C1 (stereo partly drawn) [Compound 1]
sleep quality as measured by SQS [1]: no meaningful improvements or worsening
effects on body sway ([2]; day 1): Slight effects
effects on body sway ([2]; day 7): absent
tolerability across dose levels tested ([3]; Example 1, Parts 1-3): generally well tolerated
TEAE Abnormal Dreams (Psychiatric Disorders), subjects (%) ([3]; MAD Cohort 4, 250 mg QAM): 0
TEAE Balance Disorder (Nervous System Disorders), subjects (%) ([3]; MAD Cohort 4, 250 mg QAM): 0
TEAE Cognitive Disorder (Nervous System Disorders), subjects (%) ([3]; MAD Cohort 4, 250 mg QAM): 0
TEAE Diarrhoea (Gastrointestinal Disorders), subjects (%) ([3]; MAD Cohort 4, 250 mg QAM): 0
TEAE Disturbance in attention (Nervous System Disorders), subjects (%) ([3]; MAD Cohort 4, 250 mg QAM): 0
TEAE Dizziness (Nervous System Disorders), subjects (%) ([3]; MAD Cohort 4, 250 mg QAM): 0
TEAE Euphoric Mood (Psychiatric Disorders), subjects (%) ([3]; MAD Cohort 4, 250 mg QAM): 0
TEAE Fatigue (General Disorders and Administration Site Conditions), subjects (%) ([3]; MAD Cohort 4, 250 mg QAM): 0
TEAE Hallucination, Visual (Psychiatric Disorders), subjects (%) ([3]; MAD Cohort 4, 250 mg QAM): 0
TEAE Headache (Nervous System Disorders), subjects (%) ([3]; MAD Cohort 4, 250 mg QAM): 0
TEAE Lethargy (Nervous System Disorders), subjects (%) ([3]; MAD Cohort 4, 250 mg QAM): 0
TEAE Rhinorrhoea (Respiratory, Thoracic, and Mediastinal Disorders), subjects (%) ([3]; MAD Cohort 4, 250 mg QAM): 0
TEAE Sedation (Nervous System Disorders), subjects (%) ([3]; MAD Cohort 4, 250 mg QAM): 0
TEAE Somnolence (Nervous System Disorders), subjects (%) ([3]; MAD Cohort 4, 250 mg QAM): 7 (77.8%)
Any TEAE, subjects (%) ([3]; MAD Cohort 4, 250 mg QAM): 7 (77.8%)
TEAE Abnormal Dreams (Psychiatric Disorders), subjects (%) ([3]; MAD Cohort 5, 375 mg QAM): 1 (11.1%)
TEAE Balance Disorder (Nervous System Disorders), subjects (%) ([3]; MAD Cohort 5, 375 mg QAM): 0
TEAE Cognitive Disorder (Nervous System Disorders), subjects (%) ([3]; MAD Cohort 5, 375 mg QAM): 1 (11.1%)
TEAE Diarrhoea (Gastrointestinal Disorders), subjects (%) ([3]; MAD Cohort 5, 375 mg QAM): 0
TEAE Disturbance in attention (Nervous System Disorders), subjects (%) ([3]; MAD Cohort 5, 375 mg QAM): 0
TEAE Dizziness (Nervous System Disorders), subjects (%) ([3]; MAD Cohort 5, 375 mg QAM): 0
TEAE Euphoric Mood (Psychiatric Disorders), subjects (%) ([3]; MAD Cohort 5, 375 mg QAM): 0
TEAE Fatigue (General Disorders and Administration Site Conditions), subjects (%) ([3]; MAD Cohort 5, 375 mg QAM): 0
TEAE Hallucination, Visual (Psychiatric Disorders), subjects (%) ([3]; MAD Cohort 5, 375 mg QAM): 0
TEAE Headache (Nervous System Disorders), subjects (%) ([3]; MAD Cohort 5, 375 mg QAM): 0
TEAE Lethargy (Nervous System Disorders), subjects (%) ([3]; MAD Cohort 5, 375 mg QAM): 0
TEAE Rhinorrhoea (Respiratory, Thoracic, and Mediastinal Disorders), subjects (%) ([3]; MAD Cohort 5, 375 mg QAM): 0
TEAE Sedation (Nervous System Disorders), subjects (%) ([3]; MAD Cohort 5, 375 mg QAM): 0
TEAE Somnolence (Nervous System Disorders), subjects (%) ([3]; MAD Cohort 5, 375 mg QAM): 6 (66.7%)
Any TEAE, subjects (%) ([3]; MAD Cohort 5, 375 mg QAM): 6 (66.7%)
TEAE Abnormal Dreams (Psychiatric Disorders), subjects (%) ([3]; MAD Cohort 6, 500 mg QAM): 0
TEAE Balance Disorder (Nervous System Disorders), subjects (%) ([3]; MAD Cohort 6, 500 mg QAM): 7 (77.8%)
TEAE Cognitive Disorder (Nervous System Disorders), subjects (%) ([3]; MAD Cohort 6, 500 mg QAM): 4 (44.4%)
TEAE Diarrhoea (Gastrointestinal Disorders), subjects (%) ([3]; MAD Cohort 6, 500 mg QAM): 0
TEAE Disturbance in attention (Nervous System Disorders), subjects (%) ([3]; MAD Cohort 6, 500 mg QAM): 1 (11.1%)
TEAE Dizziness (Nervous System Disorders), subjects (%) ([3]; MAD Cohort 6, 500 mg QAM): 1 (11.1%)
TEAE Euphoric Mood (Psychiatric Disorders), subjects (%) ([3]; MAD Cohort 6, 500 mg QAM): 1 (11.1%)
TEAE Fatigue (General Disorders and Administration Site Conditions), subjects (%) ([3]; MAD Cohort 6, 500 mg QAM): 0
TEAE Hallucination, Visual (Psychiatric Disorders), subjects (%) ([3]; MAD Cohort 6, 500 mg QAM): 1 (11.1%)
TEAE Headache (Nervous System Disorders), subjects (%) ([3]; MAD Cohort 6, 500 mg QAM): 0
TEAE Lethargy (Nervous System Disorders), subjects (%) ([3]; MAD Cohort 6, 500 mg QAM): 1 (11.1%)
TEAE Rhinorrhoea (Respiratory, Thoracic, and Mediastinal Disorders), subjects (%) ([3]; MAD Cohort 6, 500 mg QAM): 0
TEAE Sedation (Nervous System Disorders), subjects (%) ([3]; MAD Cohort 6, 500 mg QAM): 0
TEAE Somnolence (Nervous System Disorders), subjects (%) ([3]; MAD Cohort 6, 500 mg QAM): 9 (100%)
Any TEAE, subjects (%) ([3]; MAD Cohort 6, 500 mg QAM): 9 (100%)
TEAE Abnormal Dreams (Psychiatric Disorders), subjects (%) ([3]; MAD Cohort 7, 375 mg QHS): 0
TEAE Balance Disorder (Nervous System Disorders), subjects (%) ([3]; MAD Cohort 7, 375 mg QHS): 2
TEAE Cognitive Disorder (Nervous System Disorders), subjects (%) ([3]; MAD Cohort 7, 375 mg QHS): 2 (22.2%)
TEAE Diarrhoea (Gastrointestinal Disorders), subjects (%) ([3]; MAD Cohort 7, 375 mg QHS): 1 (11.1%)
TEAE Disturbance in attention (Nervous System Disorders), subjects (%) ([3]; MAD Cohort 7, 375 mg QHS): 1 (11.1%)
TEAE Dizziness (Nervous System Disorders), subjects (%) ([3]; MAD Cohort 7, 375 mg QHS): 1 (11.1%)
TEAE Euphoric Mood (Psychiatric Disorders), subjects (%) ([3]; MAD Cohort 7, 375 mg QHS): 1 (11.1%)
TEAE Fatigue (General Disorders and Administration Site Conditions), subjects (%) ([3]; MAD Cohort 7, 375 mg QHS): 0
TEAE Hallucination, Visual (Psychiatric Disorders), subjects (%) ([3]; MAD Cohort 7, 375 mg QHS): 0
TEAE Headache (Nervous System Disorders), subjects (%) ([3]; MAD Cohort 7, 375 mg QHS): 1 (11.1%)
TEAE Lethargy (Nervous System Disorders), subjects (%) ([3]; MAD Cohort 7, 375 mg QHS): 0
TEAE Rhinorrhoea (Respiratory, Thoracic, and Mediastinal Disorders), subjects (%) ([3]; MAD Cohort 7, 375 mg QHS): 0
TEAE Sedation (Nervous System Disorders), subjects (%) ([3]; MAD Cohort 7, 375 mg QHS): 0
TEAE Somnolence (Nervous System Disorders), subjects (%) ([3]; MAD Cohort 7, 375 mg QHS): 5 (55.6%)
Any TEAE, subjects (%) ([3]; MAD Cohort 7, 375 mg QHS): 6 (66.7%)
TEAE Abnormal Dreams (Psychiatric Disorders), subjects (%) ([3]; MAD Cohort 8, 375 mg QHS): 0
TEAE Balance Disorder (Nervous System Disorders), subjects (%) ([3]; MAD Cohort 8, 375 mg QHS): 0
TEAE Cognitive Disorder (Nervous System Disorders), subjects (%) ([3]; MAD Cohort 8, 375 mg QHS): 0
TEAE Diarrhoea (Gastrointestinal Disorders), subjects (%) ([3]; MAD Cohort 8, 375 mg QHS): 0
TEAE Disturbance in attention (Nervous System Disorders), subjects (%) ([3]; MAD Cohort 8, 375 mg QHS): 0
TEAE Dizziness (Nervous System Disorders), subjects (%) ([3]; MAD Cohort 8, 375 mg QHS): 0
TEAE Euphoric Mood (Psychiatric Disorders), subjects (%) ([3]; MAD Cohort 8, 375 mg QHS): 0
TEAE Fatigue (General Disorders and Administration Site Conditions), subjects (%) ([3]; MAD Cohort 8, 375 mg QHS): 0
TEAE Hallucination, Visual (Psychiatric Disorders), subjects (%) ([3]; MAD Cohort 8, 375 mg QHS): 0
TEAE Headache (Nervous System Disorders), subjects (%) ([3]; MAD Cohort 8, 375 mg QHS): 0
TEAE Lethargy (Nervous System Disorders), subjects (%) ([3]; MAD Cohort 8, 375 mg QHS): 0
TEAE Rhinorrhoea (Respiratory, Thoracic, and Mediastinal Disorders), subjects (%) ([3]; MAD Cohort 8, 375 mg QHS): 0
TEAE Sedation (Nervous System Disorders), subjects (%) ([3]; MAD Cohort 8, 375 mg QHS): 1 (11.1%)
TEAE Somnolence (Nervous System Disorders), subjects (%) ([3]; MAD Cohort 8, 375 mg QHS): 1 (11.1%)
Any TEAE, subjects (%) ([3]; MAD Cohort 8, 375 mg QHS): 2 (22.2%)
effect of food on safety or tolerability ([3]; Part 2, 140 mg): Food did not impact safety or tolerability
most common adverse event ([3]; most frequently at doses greater than or equal to 500 mg): somnolence
